This note sets out measurements from patent publication EP0089901A1, “New 2-oxo-1-pyrrolidineacetic acid esters, their methods of production and therapeutic compositions containing the same” (PRODES S.A., priority 1982, dated 1983).

For data set [1], the system named is animals. The experiment in a line: Unspecific protection against lethality: anoxia by CNK, survival time. The format is in vivo. Particulars: survival time after CNK.
A further data set deals with mouse. The experiment in a line: Unspecific protection against lethality: gasping time after quick decapitation. The format is in vivo. Particulars: gasping time after decapitation of mouse.
Another data set relates to anesthetized dogs. Put plainly: Electromagnetic blood flow measurement (vertebral/cerebral blood flow). The format is in vivo. The conditions noted are these: vertebral blood flow. As for the experimental part:
After orotraqueal intubation, artificial respiration with normal air was instituted using a Manley Pulmovent respirator. The correct ventilation of the dogs was checked after all the surgical procedures by determining the p02, pC02, and pH in arterial blood samples, as well as several times during the experiment by means of an Astrup apparatus. Blood pressure was measured in left saphenous artery by means of a Bell & Howell pressure transducer, and the heart rate by means of a Beckman ECG device. Recordings were made on an ink-writing Beckman polygraph. Left saphenous vein and right saphenous artery were cannulated with polyethylene catheters for drug administration and blood collection respectively.
Vertebral blood flow was measured by a non-cannulating electro-magnetic flowmeter (Carolina Medical Electronics) placed in the vertebral artery.
The Carolina digital flowmeter was connected to an Omniscribe Houston Instruments plotter.
Piracetam and nicotinic acid were used as control drugs.

The test system of data set [2] is animals. The experiment in a line: Unspecific protection against lethality: hypoxia-hypobara (decompression), survival time. The format is in vivo. The conditions noted are these: survival time under decompression. The text has this:
We have chosen the hypoxia-hypobara : the decompression kills the animals, because of the lack of 02.

Data set [3] is described as follows: LD50 of representative compounds. The conditions noted are these: in vivo. The text has this: LD50 of representative compounds included in Table III.

From the text for mouse: The second trial is the quick decapitation of mouse. The head has a typical mandibular movement, known as gasping, as searching the breathing air.

In the case of `CC1CC(OC(=O)CN2CCCC2=O)CC(C)(C)C1` (mixture of isomers) [cis/trans 3,3,5-trimethylcyclohexyl 2-oxo-l-pyrrolidineacetate], the “ANOXIA BY CNK” value with animals [1] (DOSE 500mg/kg) is reported as “Very active”. Also, the GASPING entry with mouse (DOSE 500mg/kg) is recorded as “Very active”. In addition, in the data set with anesthetized dogs (DOSE 1 mg/kg), the EFFECT result is recorded as “Active”. Further, the “HYPOXIA HYPOBARA” value in the data set with animals [2] (DOSE 500mg/kg) was “Active”. The LD50 (commonly the dose at which mortality reaches 50%) in data set [3] was 3170 mg/kg.

On to `O=C1NC(=O)C(c2ccccc2)(c2ccccc2)N1` [Difenilhydantoine, reference compound], for which, in the data set with animals [1] (DOSE 100mg/kg), the “ANOXIA BY CNK” value is recorded as “Active”. In addition, the GASPING result in the data set on mouse (DOSE 100mg/kg) was “Very active”. Moreover, in the data set with animals [2] (DOSE 100mg/kg), the “HYPOXIA HYPOBARA” value is reported as “Active”.

As to `O=C(O)c1cccnc1` [Nicotinic acid], the EFFECT entry in the data set on anesthetized dogs (no dose given) is “No effect”.

Consider `COc1ccc(Cc2nccc3cc(OC)c(OC)cc23)cc1OC` [Papaverine], for which, in the data set on anesthetized dogs (DOSE 0.5 mg/kg), the EFFECT entry is given as “Active”.

With `CCC(C(=O)OC1CC(C)CC(C)(C)C1)N1CCCC1=O` (stereo not drawn) [cis 3,3,5-trimethylcyclohexyl 2-(2-oxo-l-pyrrolidinyl)butyrate], the “ANOXIA BY CNK” value in the data set on animals [1] (DOSE 500mg/kg) is “Very active”. For the same molecule, the GASPING result in the data set on mouse (DOSE 500mg/kg) was “Very active”. Moreover, the EFFECT entry with anesthetized dogs (DOSE 0.5 mg/kg) is “Active”. Besides, the “HYPOXIA HYPOBARA” value in the data set on animals [2] (DOSE 500mg/kg) is listed as “Active”. The same molecule returned an LD50 in data set [3] of 2850 mg/kg.

As for `NC(=O)CN1CCCC1=O` [Piracetam, 2-oxo-1-pyrrolidineacetamide, reference compound], in the data set on animals [1] (DOSE 1000mg/kg), the “ANOXIA BY CNK” value is “No effect”. Further, in the data set with mouse (DOSE 1000mg/kg), the GASPING result is “No effect”. The EFFECT entry with anesthetized dogs (no dose given) is given as “No effect”. In addition, in the data set on animals [2] (DOSE 1000mg/kg), the “HYPOXIA HYPOBARA” value is “No effect”.
